Test results taken from patent US20260209777A1, “TARGETING GLYCOSYLPHOSPHATIDYLINOSITOL (GPI) PATHWAY PROTEINS TO TREAT OVARIAN CANCER” (UNIVERSITY OF MASSACHUSETTS, priority 2023, published 2026).

Assays:
[1] = test system: CD24 cell surface expression in MCF7 breast cancer cells; experiment: CD24 flow cytometry analysis in MCF7 cells; type: cell-based, human; details: MCF7, 10 or 20 μM bestatin vs DMSO (FIG. 7D)
Description: Flow Cytometry Analysis: For cell surface protein staining, 1×10^5-1×10^6 cells were first incubated with Fc receptor blocking solution, Human TruStain FcX™ (BioLegend, Cat #422301) for 10 minutes at room temperature. Cells were washed once in FACS buffer (1×PBS, 1.0% bovine serum albumin (BSA) (Sigma) and 0.2% sodium azide (Sigma), and then incubated with antibodies (given below) for 30 minutes at 4° C. in the dark. Cells were also stained with 7-AAD (Biolegend, Cat #420404) for dead cell exclusion, and flow cytometry analysis was performed using a Bio-Rad ZE5 Cell Analyzer. Following antibodies used in this study (all antibodies were used at 1:50 dilution unless otherwise noted): APC anti-human CD24 (BioLegend, Cat #311118, clone ML5), PE anti-human CD24 (eBioscience, Cat #12-0247-42, clone SN3), APC anti-human CD47 (BioLegend, Cat #323124, clone CC2C6), APC anti-human § 2-microglobulin (BioLegend, Cat #395711, clone A17082A), PE anti-human HLA-A2 (MHC-class I) (BioLegend, Cat #343305, clone BB7.2), APC anti-human CD11b (BioLegend, Cat #982604, clone ICRF44), APC anti-mouse F4/80 antibody (BioLegend, Cat #123116, clone BM8), APC-streptavidin (Thermo Fisher Scientific, Cat #SA1005, 1:100 dilution), PE anti-Calreticulin (Invitrogen, Catalog #MA5-15382, 1:200 dilution). […]

GPAA1 = target: T1, GPAA1 (Homo sapiens, UniProt O43292); experiment: Cellular thermal stability shift assay (CETSA); type: binding; details: OVCAR8 cells, bestatin 100 μM for 2 hours, relative to DMSO (FIG. 6B)
T1 construct: endogenous in cells; host or cells: OVCAR8 human ovarian cancer cells (Creative Biolabs, Cat #IOC-ZP305)
T1 sequence (O43292 1-621): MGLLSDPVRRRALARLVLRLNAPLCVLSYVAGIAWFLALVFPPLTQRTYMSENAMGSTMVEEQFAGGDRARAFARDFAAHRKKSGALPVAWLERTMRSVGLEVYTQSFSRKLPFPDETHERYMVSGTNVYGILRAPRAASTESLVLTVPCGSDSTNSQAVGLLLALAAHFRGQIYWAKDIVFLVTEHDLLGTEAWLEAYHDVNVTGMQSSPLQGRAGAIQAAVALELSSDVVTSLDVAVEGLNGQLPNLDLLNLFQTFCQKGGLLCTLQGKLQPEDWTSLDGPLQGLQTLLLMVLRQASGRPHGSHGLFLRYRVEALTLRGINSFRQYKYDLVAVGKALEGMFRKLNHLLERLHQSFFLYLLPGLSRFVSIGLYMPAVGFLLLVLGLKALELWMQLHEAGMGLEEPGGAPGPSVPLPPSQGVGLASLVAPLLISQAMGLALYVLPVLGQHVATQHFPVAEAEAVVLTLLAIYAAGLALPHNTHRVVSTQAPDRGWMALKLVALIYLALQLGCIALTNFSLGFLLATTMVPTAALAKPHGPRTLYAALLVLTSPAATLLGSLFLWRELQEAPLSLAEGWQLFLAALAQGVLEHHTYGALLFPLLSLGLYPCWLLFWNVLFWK
Description: CETSA: CETSA assays were performed as described previously (Jafari et al., Nat Protoc 2014, 9(9):2100-22). In brief, […] OVCAR8 cells were treated with DMSO or 100 μM bestatin for 2 hours. Cells (50 μl) were aliquoted in PCR tubes and incubated at room temperature (25° C.) or at a range of temperatures (37° C. to 65.2° C.) in a thermal cycler for 3 min and cooled to 4° C. Cells were lysed using Alpha SureFire Ultra Lysis Buffer (PerkinElmer, Cat #ASLU-LB) supplemented with Halt Protease Inhibitor Cocktail (ThermoFisher Scientific, Cat #78430). Insoluble proteins were separated by centrifugation at 15000×g for 30 mins at 4° C. Equal volumes of each sample were separated by SDS-PAGE and detected by immunoblotting blotting using an anti-GPAA1 polyclonal antibody (Invitrogen, Cat #PA5-100548). Three independent experiments were performed. Densitometry of the blots was performed using ImageJ software and the graph was plotted using GraphPad Prism 9.0.
Due to the predicted structural similarity between GPAA1 and M28-type metallopeptidases, we hypothesized that GPAA1 may be inhibited by bestatin and carried out a series of experiments to test this possibility. […] The ligand-bound proteins in the soluble fraction are analyzed by immunoblotting to quantify the changes in thermal stability.

In the case of `CC(C)C[C@H](NC(=O)[C@@H](O)[C@H](N)Cc1ccccc1)C(=O)O` [bestatin], the “CD24 cell surface expression (MFI)” value [1] was “did not decrease” and the “thermal stability of GPAA1” value (GPAA1) was “increased”.
